≈ marks a conversion by molar mass, not a printed value.
Legend:
bone marrow stem cells = assay: bone marrow stem cell proliferation (XTT); type: cell-based, C57/BL6 mice; conditions: for Max amplitude: 7 days, XTT 492 nm; for Min amplitude: blank ± 3× standard deviation; for Max concentration: concentration at maximum amplitude; for EC50 conc: concentration corresponding to 50% of maximum amplitude; for Min concentration: lowest concentration inducing a significant proliferation
Source text: 6-week old male C57/BL6 mice are killed by CO2 inhalation. The hip, femur, tibia and hind leg bones are removed. The marrow is extracted from the bone lumen by injecting Dulbecco's Modified Eagle Medium (DH medium) from the end portions which had been excised. The stem cells are washed and suspended again in DH medium supplemented with 20% foetal calf serum (FCS) The cell concentration is adjusted to 500000 cells/ml.
Products previously dissolved in DH medium supplemented with 20% FCS, amino acids and antibiotics are serially diluted directly into a microtiter plate. The products are tested in triplicate and each microtiter plate includes a negative control containing plain medium. The final volume in each well is 100 μl.
100 μl of the cell suspension are added to diluted solutions of products and the cells are incubated for 7 days in an incubator at 37° C., under 8% CO2 and a moisture saturated atmosphere. Cell proliferation is determined by measuring the […] of a chromogenic substrate XTT (2,3-bis[2-methoxy-4-nitro-5-sulphophenyl]-2H-tetrazolium-5-carboxanilide) in mitochondria of viable cells.
At the end of the incubation period, 50 μl of the XTT substrate solution (1 mg/ml XTT+0.008 mg/ml phenazine methosulfate) are added to each well. After an 8 hour incubation period at 37° C. under 8% CO2 in a moisture saturated incubator, the microtiter plates are read with a spectrophotometer at 492 nm against a reference sample at 690 nm.
Results are expressed as mean value±standard deviation and plotted as a dose versus response curve. Values for a negative control composed of DH medium (mean±standard deviation) are also graphically shown.
From this dose versus response curve, 3 curve variables are computed:
Max: maximum curve amplitude and corresponding concentration
EC50: concentration corresponding to 50% of maximum amplitude
Min: lowest concentration inducing a significant proliferation corresponding to the blank±3× standard deviation value
Concentration values corresponding to EC50 and Min are determined from line segments joining different points on the curve.
If the curve has no plateau phase but an ascending configuration for the highest concentration being tested, a “>” sign is shown before Max and EC50 values.

[1] = tested on: human peripheral blood mononuclear cells; assay: α TNF production by human peripheral blood mononuclear cells; type: cell-based; conditions: for α TNF produced: 18 hours
Method in brief: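 Ficoll-isolated PBMC from 6 healthy donors (2×10^6 viable cells/ml, RPMI-1640, 10% FCS) exposed in triplicate for 18 h at 37 °C, 5% CO2 to compounds diluted 100-, 10- or 1-fold. Secreted TNF-α measured by chemiluminescent ELISA on 4-fold diluted supernatants against a 0.7–7000 pg/ml standard curve; values in pg/ml.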

[2] = tested on: predendritic cells (DC-6); assay: dendritic cell differentiation test: FITC-Dextran take-up; type: cell-based, human; conditions: for Dextran % CD: products redissolved in pyrogen-free water, % of dendritic cells; for Dextran Fluorescence: mean fluorescence value
Method: (§1) The ability of products of the invention to induce maturation of predendritic cells into dendritic cells was assessed. The following parameters were measured: FITC-Dextran conjugate take-up and expression of CD83, CD86 surface markers.
(§2) Mononucleated cells of peripheral blood are isolated from buffy coats of healthy donors. Purified monocytes by adherence selection are resuspended in RPMI-1640 medium containing 10% of foetal calf serum (FCS), GM-CSF and IL-4 (10 ng/ml) at a density of 1×10^6 cells/ml. Cells are divided into Petri Dishes (10×10^6 cells per dish) and cultured for 6 days with a change to fresh medium after 3 days. Cells thus obtained are called predendritic cells (DC-6). Maturation of predendritic cells into mature dendritic cells is achieved by incubating cells with diluted solutions of the products or LPS (positive control) for 3 more days (see product section below). At day 9 (DC-9), cells are harvested and analyzed for different indicators of dendritic cell maturation: assessment of CD83, CD86 surface marker expression as well as of their ability to take up FITC-Dextran conjugate. All these parameters are analyzed by an EPICS-XL-MCL model FACS (Coulter Immunology, Hialeah, […]).
(§3) Expression of surface markers is given as % of mean fluorescence of LPS-activated cells (positive control); FITC-Dextran conjugate take-up rate is calculated based on take-up of cells maintained in basic medium and is expressed in %.
(§4) Solutions are incubated at 37° C. for 20 minutes, subjected to vigorous stirring during 3 minutes and then diluted to 100 μg/ml in RPMI-1640 culture medium and used in diluted state at concentrations ranging from 10 μg/ml to 0.03 μg/ml. Reference Product: E. coli lipopolysaccharide (LPS, DIFCO, Detroit, Mich., U.S.A.), as a 5 mg/ml stock solution in PBS. An intermediate 100 μg/ml solution is prepared in RPMI 1640 culture medium. Concentrations of dilute solutions being tested range from 1 μg/ml to 0.03 μg/ml.
(§5) In another series of experiments, all acyl dipeptide-like compounds were freeze-dried and directly redissolved into pyrogen-free water. Different products as well as LPS control are tested at a concentration of 10 μg/ml. Results are given as % of dendritic cells and mean fluorescence value for dextran phagocytosis or CD86 surface marker expression.
Immature dendritic cells (DC-6) resulting from monocyte differentiation, through the joint action of GM-CSF and IL-4, are able to incorporate FITC-Dextran conjugate. During the maturation process, cells lose their ability to incorporate the FITC-Dextran conjugate. Assays are conducted upon reaching the DC-9 differentiation stage.

[3] = tested on: CD83, CD86 surface markers of predendritic cells (DC-6); assay: dendritic cell differentiation test: CD83, CD86 surface marker expression; type: cell-based, human; conditions: for CD86 % CD / CD86 Fluorescence: 10 μg/ml; for CD86 % CD: products redissolved in pyrogen-free water, % of dendritic cells; for CD86 Fluorescence: mean fluorescence value
Method: as §1, §2, §3, §4, §5

Row | Structure (SMILES) | Max amplitude (bone marrow stem cells) [O.D] | Min amplitude (bone marrow stem cells) [O.D] | Max concentration (bone marrow stem cells) [µg/mL] | EC50 conc (bone marrow stem cells) [µg/mL] | Min concentration (bone marrow stem cells) [µg/mL] | α TNF produced ([1]; product 1 μg/ml) [pg/mL] | α TNF produced ([1]; product 10 μg/ml) [pg/mL] | α TNF produced ([1]; product 100 μg/ml) [pg/mL] | Dextran % CD ([2]; 10 μg/ml) [%] | Dextran Fluorescence ([2]; 10 μg/ml) | CD86 % CD [3] [%] | CD86 Fluorescence [3] | concentration at which a significant α TNF production level is induced ([1]; only at this concentration) [µg/mL] | decrease of phagocytic capacity ([2]; 10 μg/ml) [%] | effect on phagocytosis ([2]; concentrations lower than 3 μg/ml) | concentration inducing differentiation of DC-6 cells into DC-9 cells ([2]; summary of phagocytosis and marker data) | concentration inducing an increase in expression of CD83 and CD86 surface markers ([3]; FIGS. 75 & 76) | ability to induce differentiation of predendritic cells into dendritic cells ([2]; 10 μg/ml)
1 | CCCCCCCCCCCC(=O)O[C@H](CCCCCCCCCCC)CC(=O)N[C@H](CC(=O)N[C@@H](CCCCN)C(=O)O)C(=O)NCCC[C@H](CO)NC(=O)C[C@H](O)CCCCCCCCCCC [OM-197-Lys] | 1.56 | < 0.86 | 25 | 3.3 (≈ 3.31 µM) | < 0.39 | 284 | 164 | 20 | 12.1 | 0.5 | 21.2 | 2.1 |  |  |  |  |  | 
2 | CCCCCCCCCCCC(=O)O[C@H](CCCCCCCCCCC)CC(=O)N[C@H](CC(=O)O)C(=O)NCCC[C@H](CO)NC(=O)C[C@H](O)CCCCCCCCCCC [OM-197-MC, N—[(R)-3-dodecanoyloxytetradecanoyl]-D-aspartic acid, α-N-{(4R)-5-hydroxy-4[(R)-3-hydroxytetradecanoylamino]-pentyl}amide] | 1.75 | 0.80 | 64 | 19.4 (≈ 22.3 µM) | 1.25 | 0 | 0 | 12 |  |  |  |  | 100 | 22 | no effect on phagocytosis | greater than 1 μg/ml | at least 1 μg/ml | 
3 | CCCCCCCCCCCC(=O)O[C@H](CCCCCCCCCCC)CC(=O)N[C@H](CC(=O)O)C(=O)NCCC[C@H](COC(=O)CCCCCN)NC(=O)C[C@H](O)CCCCCCCCCCC [OM-197-MC-AC, N—[(R)-3-dodecanoyloxytetradecanoyl]-D-aspartic acid, α-N-{(4R)-5-(6-aminohexanoyloxy)-4-[(R)-3-hydroxytetradecanoylamino]pentyl}amide] | 1.62 | 0.80 | 50 | 31.0 (≈ 31.6 µM) | 0.92 | 12 | 140 | 144 | 68.3 | 5.2 | 67.4 | 5.2 |  |  |  |  |  | 
4 | CCCCCCCCCCCC(=O)O[C@H](CCCCCCCCCCC)CC(=O)N[C@H](CC(=O)O)C(=O)NCCC[C@H](COC(=O)CCCCCNC(=O)CCC(=O)OC[C@H]1O[C@@H](n2cc(C)c(=O)[nH]c2=O)C[C@@H]1N=[N+]=[N-])NC(=O)C[C@H](O)CCCCCCCCCCC [OM-197-MC-AC-Succ-AZT] | 1.08 | 0.80 | 12.5 | 3.3 (≈ 2.48 µM) | 2.11 | 108 | 224 | 64 | 62.2 | 4.8 | 81.4 | 6.1 |  |  |  |  |  | significant ability to induce differentiation into dendritic cells
5 | CCCCCCCCCCCC(=O)O[C@H](CCCCCCCCCCC)CC(=O)N[C@H](CC(=O)O)C(=O)NCCC[C@H](COC(=O)CCCCCNC(=O)CCC(=O)OC[C@@H]1C=C[C@H](n2cc(C)c(=O)[nH]c2=O)O1)NC(=O)C[C@H](O)CCCCCCCCCCC [OM-197-MC-AC-Succ-d4T] | 1.40 | 0.80 | 50 | 25.4 (≈ 19.7 µM) | 2.81 | 0 | 40 | 52 | 11.6 | 0.5 | 25.9 | 2.4 |  |  |  |  |  | 
6 | CCCCCCCCCCCC(=O)O[C@H](CCCCCCCCCCC)CC(=O)N[C@H](CC(=O)O)C(=O)NCCC[C@H](COC(=O)CCCCC(O)CO)NC(=O)C[C@H](O)CCCCCCCCCCC (stereo partly drawn) [OM-197-MC-FV5, N—[(R)-3-dodecanoyloxytetradecanoylamino]-D-aspartic acid, α-N-{(4R)-5-hydroxy-4-[(R)-3-hydroxytetra-decanoylamino]-pentyl}amide 5-O-(6,7-dihydroxyheptanoate)] | 1.75 | 0.80 | 50 | 32.0 (≈ 31.6 µM) | 8.20 | 0 | 104 | 116 | 86.5 | 6.4 | 74.5 | 5.6 |  |  |  |  |  | 
7 | CCCCCCCCCCCC(=O)O[C@H](CCCCCCCCCCC)CC(=O)N[C@H](CC(=O)O)C(=O)NCCC[C@H](COC(=O)CCC(=O)O)NC(=O)C[C@H](O)CCCCCCCCCCC [OM-197-MC-Succ] | 2.16 | 0.80 | 50 | 24.7 (≈ 25.5 µM) | 2.95 | 0 | 96 | 176 | 35.5 | 3.0 | 34.9 | 3.0 |  |  |  |  |  | 

Reference: US8173133B2, “Acyl pseudodipeptides which carry a functionalized auxiliary arm” (OM Pharma, priority 1999, dated 2012)
